What was measured:
zD17-JNK3 interaction = zD17-JNK3 interaction (Rattus norvegicus, UniProt P49187); assay: co-immunoprecipitation of zD17 with JNK3 in cortical neuronal cultures; format: cell-based; design: diminished the co-immunoprecipitation of zD17 with JNK3; endogenous in cells; host or cells: primary cortical neurons of embryonic (E18-19) Wistar rat; details: for zD17-JNK3 interaction (co-immunoprecipitation), baseline: no NMDA
Protocol: (§1) All animal experiments were approved by the Animal Care Committee of the University of British Columbia. Primary cortical cultures were prepared from Wistar rat (UBC Animal Care Centre, Vancouver, BC, Canada) brains at embryonic days 18-19. Cultures were maintained in Neurobasal medium supplemented with B27 and 0.5 mM glutamax (Invitrogen™) as described previously (Yang et al., 2009).
(§2) The protocols for protein extraction have been described previously (Yang et al., 2009). For co-immunoprecipitation, cultured cells were washed with ice-cold PBS followed by incubation with 0.5 ml Gentle Lysis Buffer (GLB) containing 25 mM Tris-HCl (pH 7.4), 2 mM EDTA, 1 mM EGTA, 10 mM NaCl, 0.5% Triton X-100 and 10% Glycerol supplemented with the Complete Protease Inhibitor Tablets (Roche Applied Science™, Indianapolis, Ind., USA) and 1 mM PMSF. Total protein concentration was determined with the BioRad™ Protein Assay kit. Lysates were first precleaned by incubating with Protein A-Sepharose beads (Roche Applied Science™) for 1 h at 4° C., followed by incubation with indicated antibodies (>16 h at 4° C.) and protein A Sepharose bead (2 h at 4° C.). Lysates of rat brain tissues were precleaned with IgG and protein A-beads. Immunoprecipitates were washed three times with GLB buffer; boiled in 2× loading buffer with 1 mM dithiothreitol (DTT) for 3 min; and analyzed with SDS-PAGE as described previously (Yang et al., 2009). The relative intensities of the bands on immunoblots were analyzed and quantified using Image J™ (NIH).

JNK3 = molecular target: T1, JNK3 (Rattus norvegicus, UniProt P49187); assay: kinase assay (KA) on JNK3 immunoprecipitated from cell lysates; format: cell-based
T1 construct: cell lysates were prepared and JNK was immunoprecipitated with specific antibodies; endogenous in cells; host or cells: rat primary neuronal cultures; JNK3 immunoprecipitated from lysate
T1 sequence (P49187 whole entry): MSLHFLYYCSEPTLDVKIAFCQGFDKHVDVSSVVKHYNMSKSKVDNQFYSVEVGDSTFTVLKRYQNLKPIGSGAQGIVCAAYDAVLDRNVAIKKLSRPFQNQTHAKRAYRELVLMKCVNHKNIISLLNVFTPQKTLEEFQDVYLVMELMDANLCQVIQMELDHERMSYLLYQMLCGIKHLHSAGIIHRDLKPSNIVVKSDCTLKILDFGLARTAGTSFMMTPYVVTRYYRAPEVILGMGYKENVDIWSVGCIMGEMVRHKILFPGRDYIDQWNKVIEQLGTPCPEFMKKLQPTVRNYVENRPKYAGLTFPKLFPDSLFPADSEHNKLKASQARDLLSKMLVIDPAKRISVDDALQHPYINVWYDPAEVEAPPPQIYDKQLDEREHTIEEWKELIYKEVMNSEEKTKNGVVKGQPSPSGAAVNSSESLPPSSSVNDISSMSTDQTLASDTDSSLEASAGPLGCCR
Protocol: JNK activity was measured with an in vitro kinase assay as described elsewhere (see, for e.g.: Khatlani et al., 2007). Briefly, cell lysates were prepared and JNK was immunoprecipitated with specific antibodies. The immnoprecipitates were then resuspended in 1× kinase buffer (Cell Signaling Technology™) supplemented with 200 μM ATP and 250 μg/ml GST-c-jun (1-89), and incubated at 30° C. for 30 min. Reactions were terminated by the addition of SDS-PAGE sample buffer. Phosphorylated c-jun was resolved by SDS-PAGE and detected with anti-p-c-jun.

neuronal cultures = assay: LDH assay and PI staining, NMDA excitotoxicity-induced neuronal cell death; format: cell-based, rat; details: pretreatment, NMDA challenge 1 h, 24 h survival
Protocol: (§3) For biochemical studies, neurons were seeded in six-well culture plates with a density of 7.5×10^5 cells per well. For LDH assay and cell death detection, 24-well culture plates were used with a neuron density of 2.5×10^5 cells per well. Neurons of 14-17 days in vitro (DIV) were used for experiments. […] HEK 293 cells were maintained in DMEM (Invitrogen™) supplemented with 10% fetal bovine serum and 1% penicillin/streptomycin. For protein expression in cell lines, cells were transfected with Calcium Phosphate Transfection reagent (Promega™, San Luis Obispo, Calif., USA) and used 24 h later as described previously (Yang et al., 2009). The JNK inhibitor, L-JNKI, was purchased from Alexis Biochemicals™ (San Diego, Calif.). Thrombin was obtained from BIOPUR™ (Bubendorf, Switzerland). Other assay reagents without indication were obtained from Sigma™.
Neuronal cultures were challenged with indicated concentrations of NMDA for 1 h, followed by 24 h survival. The release of lactate dehydrogenase (LDH) was measured with an in vitro toxicology assay kit (Sigma™) according to the manufacturer's instructions. Spectrophotometric measurement was performed on a Multilabel Plate Reader (Envision™ 2103, Perkin Elmer™). The LDH reading represents the primary absorbance at a wavelength of 490 nm after subtraction of background absorbance at 690 nm. LDH readings were then converted to a percentage of neuronal death by dividing by the readings from cultures incubated with 1% triton for 15 min representing total LDH. Following the LDH assay, propidium iodide (PI) (Sigma™) was added to the medium at a final concentration of 1 μg/ml and neurons were stained for 30 min at 30° C. After fixation with 4% paraformaldehyde, neurons were washed with 1×PBS and stained with Hoechst™ 33342 (Sigma™). The fluorescence of PI and Hoechst™ were examined with laser microscopy and analyzed with ImageJ™.

zD17-JNK1 interaction = molecular target: T2, zD17-JNK1 interaction (Rattus norvegicus, UniProt P49185); assay: co-immunoprecipitation of zD17 with JNK1 in neuronal cultures; format: cell-based
T2 construct: endogenous in cells; host or cells: primary cortical neurons of embryonic Wistar rat
T2 sequence (P49185 whole entry): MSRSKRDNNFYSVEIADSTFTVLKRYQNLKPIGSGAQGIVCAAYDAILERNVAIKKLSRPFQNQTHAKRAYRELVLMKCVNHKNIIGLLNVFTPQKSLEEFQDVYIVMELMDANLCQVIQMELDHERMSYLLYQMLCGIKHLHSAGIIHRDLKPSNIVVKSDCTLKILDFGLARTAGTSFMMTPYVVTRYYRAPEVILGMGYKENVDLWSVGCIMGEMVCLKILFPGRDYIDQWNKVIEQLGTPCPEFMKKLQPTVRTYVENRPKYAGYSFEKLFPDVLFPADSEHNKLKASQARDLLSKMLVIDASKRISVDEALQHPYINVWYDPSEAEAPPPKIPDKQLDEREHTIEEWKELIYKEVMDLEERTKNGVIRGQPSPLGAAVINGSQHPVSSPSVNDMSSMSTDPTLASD
Protocol: as §1
as §2, with “Lysates were first precleaned by incubating with Protein A-Sepharose beads (Roche Applied Science™) for 1 h at 4° C., followed by incubation with indicated antibodies (>16 h at 4° C.) and protein A Sepharose bead (2 h at 4° C.). Lysates of rat brain tissues were precleaned with IgG and protein A-beads.” left out

zD17-JNK2 interaction = molecular target: T3, zD17-JNK2 interaction (Rattus norvegicus, UniProt P49186); assay: co-immunoprecipitation of zD17 with JNK2 in neuronal cultures; format: cell-based
T3 construct: endogenous in cells; host or cells: primary cortical neurons of embryonic Wistar rat
T3 sequence (P49186 whole entry): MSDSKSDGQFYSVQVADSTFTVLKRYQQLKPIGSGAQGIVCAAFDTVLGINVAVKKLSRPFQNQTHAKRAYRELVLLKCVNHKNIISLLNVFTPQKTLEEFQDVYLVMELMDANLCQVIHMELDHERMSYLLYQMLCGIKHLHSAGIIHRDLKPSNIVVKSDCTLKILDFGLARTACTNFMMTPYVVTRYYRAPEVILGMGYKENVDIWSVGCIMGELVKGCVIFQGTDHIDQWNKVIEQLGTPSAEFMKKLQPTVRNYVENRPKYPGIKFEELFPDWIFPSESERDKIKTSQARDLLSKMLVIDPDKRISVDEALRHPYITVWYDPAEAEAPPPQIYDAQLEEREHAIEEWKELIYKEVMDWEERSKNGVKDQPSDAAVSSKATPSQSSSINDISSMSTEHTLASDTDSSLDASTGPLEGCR
Protocol: as §1, §2

cultured neurons = assay: axonal development in cultured neurons (Tau-1 labelling); format: cell-based, rat
Protocol: as §3
Cultured hippocampal neurons on glass coverslips were used for immunostaining. After treatments indicated in the text, neurons were fixed with 2% paraformaldehyde for 3 min at room temperature followed by permeabilization with ice-cold methanol for 10 min at −20° C. The coverslips were then washed three times with PBS and immunostained with appropriate antibodies dissolved in PBS for 1 h at room temperature. After washing three times with PBS, coverslips were incubated with Alexa-labeled secondary antibodies from Invitrogen for an additional 1 h. For mitochondrial detection, neuronal cultures were incubated at 37° C. for 30 min with 2 μM MitoTracker-TR (Invitrogen™). Coverslips were then fixed and mounted with ProLong Gold Antifade Reagent (Invitrogen™). Fluorescence was captured using a Zeiss Observer Z1™ microscope and all images were analyzed with ImageJ™ and processed using Adobe Photoshop™.

Sequence of zD17-JNK3 interaction (P49187 whole entry): as the sequence (P49187 whole entry) above

TNF-α
fold increase of zD17-JNK3 interaction (zD17-JNK3 interaction; 50 ng/ml, 6 h): 1.53±0.11 fold

MTPLMWAAYGTGSVGPTRLL (NIMoEmut NIMoE sequence with point mutations on three charged amino acids at positions 10, 12, and 15) [reference compound]
enhancement of the zD17-JNK3 interaction induced by NMDA/excitotoxicity (zD17-JNK3 interaction): did not selectively block enhancement | enhancement of JNK3 activity induced by NMDA (JNK3; neuronal cultures): did not selectively block enhancement | excitotoxicity-induced cell death as measured by LDH release and PI staining (neuronal cultures): no protective effects

CN[C@H](CC(=O)O)C(=O)O [NMDA, N-methyl-D-aspartic acid]
zD17 interaction with JNK1, fold increase compared with control (zD17-JNK1 interaction): 1.4±0.1 fold | zD17 interaction with JNK3, fold increase compared with control (zD17-JNK3 interaction): 2.5±0.3 fold | zD17 interaction with JNK2, fold increase compared with control (zD17-JNK2 interaction): 2.1±0.4 fold

IL-1β: cytokine used to induce inflammation stress
fold increase of zD17-JNK3 interaction (zD17-JNK3 interaction; 10 ng/ml, 16 h): 1.88±0.23 fold

Oc1c2ccccc2c2c3c(cccc13)N=N2 [SP600125, reference compound]
axon length (cultured neurons; SP600125 incubation, control 161.2±3.9): 84.9±1.6% | axon initiation rate normalized to control (cultured neurons; incubation of cultured neurons, Tau-1 marker): 18.2±4.1%

NVKGESALDLAKQ (listed as Homo sapiens) [DIPep1, control peptide derived from an unrelated region of zD17 (255-267), reference compound]
excitotoxicity-induced cell death as measured by LDH release and PI staining (neuronal cultures): no protective effects

CCCCCCCCCCCCCCC(Br)C(=O)O (stereo not drawn) [2-BrPA, 2-bromopalmitate]
zD17-JNK3 interaction (co-immunoprecipitation), baseline (zD17-JNK3 interaction): robustly enhanced

TPLHWATRGGHLSMV (listed as Homo sapiens) [NIMoD, peptide comprising motif-D of zD17, fused to HIV-1 Tat transduction domain]
zD17-JNK3 interaction (co-immunoprecipitation), baseline (zD17-JNK3 interaction): significantly diminished | JNK3 basal activity (JNK3; neuronal cultures): reduction of JNK3 basal activity | JNK3 basal activity, fold change to control (JNK3; pretreatment of cells 1 μM for 2 h): 0.72±0.07 fold

N[C@@H](CCC(=O)O)C(=O)O [Glutamate, glutamate]
zD17 interaction with JNK1, fold increase compared with control (zD17-JNK1 interaction): 1.4±0.1 fold | zD17 interaction with JNK3, fold increase compared with control (zD17-JNK3 interaction): 2.6±0.2 fold | zD17 interaction with JNK2, fold increase compared with control (zD17-JNK2 interaction): 1.7±0.2 fold
